The values below come from ChEMBL document CHEMBL2007661, “Compounds: GSK PKIS; Assays: UNC Frye lab” (2012).

The target of assay [1] is T1, Inhibitor of nuclear factor kappa-B kinase subunit beta (Homo sapiens) (UniProt O14920).
T1 sequence (whole entry): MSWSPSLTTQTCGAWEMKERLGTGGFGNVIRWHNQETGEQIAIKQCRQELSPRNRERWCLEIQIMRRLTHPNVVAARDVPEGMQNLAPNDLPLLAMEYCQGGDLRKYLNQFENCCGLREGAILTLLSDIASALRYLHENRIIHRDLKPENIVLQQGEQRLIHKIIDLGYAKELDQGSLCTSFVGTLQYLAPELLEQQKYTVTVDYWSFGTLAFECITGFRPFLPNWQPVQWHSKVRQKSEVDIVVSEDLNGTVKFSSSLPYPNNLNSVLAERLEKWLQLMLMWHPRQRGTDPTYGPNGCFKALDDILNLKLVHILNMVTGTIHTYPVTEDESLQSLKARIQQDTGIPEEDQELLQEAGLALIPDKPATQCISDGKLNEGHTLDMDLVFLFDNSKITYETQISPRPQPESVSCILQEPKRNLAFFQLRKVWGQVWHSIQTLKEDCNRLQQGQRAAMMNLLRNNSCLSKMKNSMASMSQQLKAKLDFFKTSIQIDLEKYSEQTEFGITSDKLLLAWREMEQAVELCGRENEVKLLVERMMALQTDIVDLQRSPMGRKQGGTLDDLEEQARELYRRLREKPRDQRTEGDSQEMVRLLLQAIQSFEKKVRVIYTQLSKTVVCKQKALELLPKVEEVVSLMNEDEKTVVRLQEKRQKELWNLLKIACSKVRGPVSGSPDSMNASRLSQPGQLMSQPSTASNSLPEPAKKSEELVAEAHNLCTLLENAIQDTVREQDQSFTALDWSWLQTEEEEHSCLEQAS
Particulars: at 1 µM.

In assay [2] the target is T2, Inhibitor of nuclear factor kappa-B kinase subunit epsilon (Homo sapiens) (UniProt Q14164).
T2 sequence (whole entry): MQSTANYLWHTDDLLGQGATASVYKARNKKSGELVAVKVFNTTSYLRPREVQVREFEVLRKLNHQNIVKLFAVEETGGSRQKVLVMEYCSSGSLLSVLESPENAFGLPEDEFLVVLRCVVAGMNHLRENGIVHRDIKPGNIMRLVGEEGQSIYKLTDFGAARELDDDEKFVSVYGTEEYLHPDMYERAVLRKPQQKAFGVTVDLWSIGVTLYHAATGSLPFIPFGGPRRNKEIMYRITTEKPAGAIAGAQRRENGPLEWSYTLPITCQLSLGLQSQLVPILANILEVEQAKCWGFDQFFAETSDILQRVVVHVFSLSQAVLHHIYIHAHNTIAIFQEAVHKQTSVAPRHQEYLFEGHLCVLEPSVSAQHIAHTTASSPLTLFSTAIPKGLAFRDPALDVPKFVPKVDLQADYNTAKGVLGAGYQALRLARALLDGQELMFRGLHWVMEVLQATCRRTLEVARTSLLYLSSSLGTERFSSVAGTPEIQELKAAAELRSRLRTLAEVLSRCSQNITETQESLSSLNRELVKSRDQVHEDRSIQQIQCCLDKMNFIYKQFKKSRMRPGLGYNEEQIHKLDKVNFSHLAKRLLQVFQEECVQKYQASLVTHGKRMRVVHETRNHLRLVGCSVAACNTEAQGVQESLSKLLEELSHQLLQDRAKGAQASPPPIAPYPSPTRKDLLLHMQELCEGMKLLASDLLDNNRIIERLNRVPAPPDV
Particulars: at 1 µM.

Assay [3] concerns the target T3, Tyrosine-protein kinase Mer (Homo sapiens) (UniProt Q12866).
T3 sequence (whole entry): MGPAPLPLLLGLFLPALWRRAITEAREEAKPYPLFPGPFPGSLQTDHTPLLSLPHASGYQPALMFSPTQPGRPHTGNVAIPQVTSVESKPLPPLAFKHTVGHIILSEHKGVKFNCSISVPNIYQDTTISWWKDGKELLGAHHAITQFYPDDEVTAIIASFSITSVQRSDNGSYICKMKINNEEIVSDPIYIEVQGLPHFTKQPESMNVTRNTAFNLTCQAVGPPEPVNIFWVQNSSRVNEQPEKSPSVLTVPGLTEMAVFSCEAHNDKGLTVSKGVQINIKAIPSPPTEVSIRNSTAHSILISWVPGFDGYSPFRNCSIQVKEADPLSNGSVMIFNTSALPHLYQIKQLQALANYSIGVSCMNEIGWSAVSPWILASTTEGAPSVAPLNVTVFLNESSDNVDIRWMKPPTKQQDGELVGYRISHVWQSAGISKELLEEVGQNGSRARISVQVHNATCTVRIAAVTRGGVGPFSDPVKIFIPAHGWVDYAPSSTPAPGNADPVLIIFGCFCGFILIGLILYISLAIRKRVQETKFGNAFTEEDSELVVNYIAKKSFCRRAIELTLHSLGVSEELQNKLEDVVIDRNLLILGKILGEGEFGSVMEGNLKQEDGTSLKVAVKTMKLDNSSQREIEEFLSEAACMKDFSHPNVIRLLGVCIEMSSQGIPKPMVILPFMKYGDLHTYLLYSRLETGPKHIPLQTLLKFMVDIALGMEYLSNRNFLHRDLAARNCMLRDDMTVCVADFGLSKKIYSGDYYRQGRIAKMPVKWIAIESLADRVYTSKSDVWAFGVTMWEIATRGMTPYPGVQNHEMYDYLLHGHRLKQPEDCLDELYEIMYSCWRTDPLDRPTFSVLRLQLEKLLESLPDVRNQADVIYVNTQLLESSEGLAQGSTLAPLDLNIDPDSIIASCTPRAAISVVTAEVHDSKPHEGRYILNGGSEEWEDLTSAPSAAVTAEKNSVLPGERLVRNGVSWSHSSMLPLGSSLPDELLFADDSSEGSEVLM
Particulars: at 10 µM.

The term inhibition denotes the relative decrease from the control value, in per cent.

Several values for one entry are separate records, joined by “and”; a condition that tells them apart may be missing. Equal entries are not always repeated.

As for `CC1=C(C(=O)Nc2ccc3[nH]ncc3c2)C(c2ccc(F)cc2)N=C(c2ccc(C(F)(F)F)nc2)N1` (centres undefined), the inhibition is -2% and -3% in assay [1]; 3% and 0% in assay [2]; -4% in assay [3].
For `COc1cccc(-n2ncc3c(N/N=C/c4ccc(C)cc4)ncnc32)c1`, the inhibition was 0% and -2% in assay [1]; 0% in assay [2]; 25% in assay [3].
`COc1cccc(-n2ncc3c(N/N=C/c4ccc(S(C)(=O)=O)cc4)ncnc32)c1`: the inhibition in assay [1] is -1%; in assay [2] it was 3% and 0%; in assay [3] it was 5%.
